Test results from publication PMC9782211 (Microorganisms, 2022).
pIC50: −log10 of the molar value.

What was measured:
Format in all cases: cell-based
[1] = system: LS-174T cells (human colon adenocarcinoma cell line); assay: Bionas chip-based system, respiration rate; conditions: 24 h peptide exposure
Procedure: (§1) Cytotoxicity was assayed by using the chip-based Bionas system with four different cell types. These include human hepatoma cells (HepG2), human colon adenocarcinoma cells (LS-174T), human acute lymphocytic leukemic cells (Jurkat), and human peripheral blood mononuclear cells (hPBMC), provided by Cell Line Services (Piscataway, NJ, USA) and ProBioGen (Berlin, Germany). The cells were seeded on chips, with a density of 200,000 cells/chip for HepG2 and LS-174T, 300,000 cells/chip for Jurkat, and 2 million cells/chip for PBMC.
(§2) A metabolic investigation with four cells and cell lines on the effect of Pep19-2.5 on selected cell parameters was performed. In detail, see Table 1.
(§3) The analysis was performed in the Bionas® 2500 analyzing system by seeding the cells on the chips, with cell numbers of 200,000 for HepG2 cells and LS-174T cells, and 300,000 for Jurkat cells. The suspended cells were embedded on the day of the experiment in agarose and immediately put into the Bionas® 2500 analyzing system. The settling phase (‘RM’) was 5 h. The peptides were added after 5 h for 24 h, then a regeneration phase followed for 4 h (‘RM’), and in the last phase the cells were lysed with 0.2% triton in fresh medium (‘TX’). For the parameters acidification, respiration, and adhesion (impedance), the mean values from two experiments were calculated. […]

human PBMC cells = assay: Bionas chip-based system, respiration rate; conditions: 24 h peptide exposure
Procedure: as §1, §2, §3

[2] = molecular target: T1, hERG ion channel (gene ID 3757) (Homo sapiens, UniProt Q12809); assay: Automated planar patch clamp (QPatch), hERG in CHO cells; conditions: for relative remaining hERG current: QPatch
T1 construct: expressed in transfected cells
T1 sequence (Q12809 whole entry): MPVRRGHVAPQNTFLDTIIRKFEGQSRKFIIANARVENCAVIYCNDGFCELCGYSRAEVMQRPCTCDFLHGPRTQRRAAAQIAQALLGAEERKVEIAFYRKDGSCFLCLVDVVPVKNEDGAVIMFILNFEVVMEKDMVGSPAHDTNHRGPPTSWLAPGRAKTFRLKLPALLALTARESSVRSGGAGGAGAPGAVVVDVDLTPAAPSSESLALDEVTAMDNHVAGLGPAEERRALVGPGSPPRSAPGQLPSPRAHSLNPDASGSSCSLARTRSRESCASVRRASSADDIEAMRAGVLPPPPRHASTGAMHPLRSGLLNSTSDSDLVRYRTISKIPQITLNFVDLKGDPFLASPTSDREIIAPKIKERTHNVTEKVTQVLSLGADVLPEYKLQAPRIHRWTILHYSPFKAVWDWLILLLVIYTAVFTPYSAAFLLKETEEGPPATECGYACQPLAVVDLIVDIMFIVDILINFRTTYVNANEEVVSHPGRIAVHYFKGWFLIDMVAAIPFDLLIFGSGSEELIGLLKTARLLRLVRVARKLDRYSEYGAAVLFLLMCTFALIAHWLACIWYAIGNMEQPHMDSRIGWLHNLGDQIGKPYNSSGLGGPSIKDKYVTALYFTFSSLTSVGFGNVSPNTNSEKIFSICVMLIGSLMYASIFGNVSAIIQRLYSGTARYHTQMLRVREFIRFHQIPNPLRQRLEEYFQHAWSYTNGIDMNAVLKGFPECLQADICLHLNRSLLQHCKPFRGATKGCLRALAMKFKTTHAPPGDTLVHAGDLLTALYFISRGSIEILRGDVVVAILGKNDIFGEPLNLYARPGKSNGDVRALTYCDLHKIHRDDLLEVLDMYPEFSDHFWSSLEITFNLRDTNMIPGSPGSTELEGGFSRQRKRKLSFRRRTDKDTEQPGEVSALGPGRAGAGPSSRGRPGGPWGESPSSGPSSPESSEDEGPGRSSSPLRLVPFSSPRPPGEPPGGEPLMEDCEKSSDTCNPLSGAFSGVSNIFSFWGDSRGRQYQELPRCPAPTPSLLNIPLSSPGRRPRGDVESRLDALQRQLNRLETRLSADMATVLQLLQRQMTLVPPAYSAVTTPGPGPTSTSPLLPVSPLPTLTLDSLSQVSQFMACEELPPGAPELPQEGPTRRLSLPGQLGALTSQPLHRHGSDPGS
Procedure: For automated patch clamp experiments, QPatch, a planar patch clamp robot, was used. QPatch experiments were performed as previously described. […] Patch clamp experiments were performed in the whole-cell voltage clamp mode on a planar patch clamp chip. Successfully clamped cells were stimulated with the following stimulation protocol: From a holding potential of −80 mV, the cells were partially depolarized to −50 mV to test the leak current at this potential where hERG channels are closed. This was followed by a depolarization to +40 mV. At this depolarized potential, the hERG channels alternate between the open and inactivated states. After partially repolarizing to −50 mV, the inactivated subpopulation of hERG channels rapidly recovers from inactivation and switches into the open state, from where the channels slowly close.
Aspidasept (Pep19-2.5) was applied at nominal concentrations of 1 µg/mL, 10 µg/mL, and 100 µg/mL, and remaining hERG mediated potassium channel currents normalized to initial currents were calculated.

## N=C(N)NCCC[C@H](NC(=O)[C@H](Cc1ccc(O)cc1)NC(=O)[C@H](CCCCN)NC(=O)[C@H](CCCCN)NC(=O)[C@H](CS)NC(=O)CN)C(=O)N[C@@H](CCCNC(=N)N)C(=O)N[C@@H](Cc1ccccc1)C(=O)N[C@@H](CCCNC(=N)N)C(=O)N[C@@H](Cc1c[nH]c2ccccc12)C(=O)N[C@@H](CCCCN)C(=O)N[C@@H](Cc1ccccc1)C(=O)N[C@@H](CCCCN)C(=O)NCC(=O)N[C@@H](CCCCN)C(=O)N[C@@H](Cc1ccccc1)C(=O)N[C@@H](Cc1c[nH]c2ccccc12)C(=O)N[C@@H](Cc1ccccc1)C(=O)N[C@@H](Cc1c[nH]c2ccccc12)C(=O)NCC(N)=O [Pep19-2.5]
[1]
  concentration above which toxic effects are observed (respiration rate): above 20 μg/mL
Human PBMC cells
  concentration above which respiration rate increased significantly: above 50 μg/mL
[2]; 1 µg/mL, fraction
  Rel. Rem. Current ± SD (QPatch): 0.97 ± 0.02
[2]; 10 µg/mL, fraction
  Rel. Rem. Current (QPatch, 20 min Application): 0.92
  Rel. Rem. Current ± SD (QPatch): 0.95 ± 0.02
[2]; 1 µg/mL (Aspidasept n = 4; Pep19-4LF n = 3)
  relative remaining hERG current: 97.2 ± 2.2%
[2]; 10 µg/mL (Aspidasept n = 4; Pep19-4LF n = 1)
  relative remaining hERG current: 95.2 ± 2.5%
[2]; 10 µg/mL applied for up to 20 min
  relative remaining hERG current: 92.2%
[2]; estimated, no significant effect at highest concentration tested (10 µg/mL), read-out: hypothetical IC50 on hERG-mediated potassium current
  pIC50: < 5.43
